In PubChem BioAssay (NCI):
Several values for one entry are separate records, joined by “and”; a condition that tells them apart may be missing. Equal values may be shown once.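 Cells were grown in 96-well plates and exposed to each compound for 48 hours at five concentrations; endpoints were interpolated linearly between bracketing concentrations, or set to the highest concentration if not reached. Here, GI50 denotes the concentration required for 50% inhibition of growth. At the TGI there is no net growth.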 *1 amine or outer side, *2 acyl side, *3 side chain or, on linkers, in order; H or OH if unused. Where a SMILES comes first, the peptide text is derived from it. [ ]: non-standard residue; d: D form. The star is where a group is joined. X12 = NCCCCC(N[*:1])C(=O)CN1CCCC1C(=O)[*:2]; Pentadecanoyl = CCCCCCCCCCCCCCC(=O)*

Legend:
Test in all cases: NCI-60 cell line screen, 48 h
[1] = tested on: KM12 colon
[2] = tested on: SK-OV-3 ovarian
[3] = tested on: SW-620 colon
[4] = tested on: CAKI-1 renal
[5] = tested on: DU-145 prostate
[6] = tested on: BT-549 breast
[7] = tested on: A498 renal
[8] = tested on: SK-MEL-5 melanoma
[9] = tested on: LOX IMVI melanoma
[10] = tested on: UACC-62 melanoma

| Compound | GI50 [1] | TGI [1] | GI50 [2] | TGI [2] | GI50 [3] | TGI [3] | GI50 [4] | TGI [4] | GI50 [5] | TGI [5] | GI50 [6] | TGI [6] | GI50 [7] | TGI [7] | GI50 [8] | TGI [8] | TGI [9] | TGI [10] | GI50 [9] | GI50 [10] |
| --- | --- | --- | --- | --- | --- | --- | --- | --- | --- | --- | --- | --- | --- | --- | --- | --- | --- | --- | --- | --- |
| CCCCCCCCCCCCCCC(=O)NC(CCCCN)C(=O)CN1CCCC1C(=O)NCC(=O)NC(Cc1ccccc1)C(=O)N1CCCC1C(=O)NC(CO)C(=O)NC(Cc1ccc(O)cc1)C(=O)NC(CCCCN)C(=O)NC(CC(C)C)C(=O)NC(CCCN=C(N)N)C(=O)N1CCCC1C(=O)NCC(N)=O (configuration not stated) (Pentadecanoyl-[X12]GFPSYKLRPG-NH2; configuration not given here) | 7.61 µM | 38.7 µM | 23.5 µM | 43.4 µM | 29.9 µM | 80.9 µM | 20.6 µM | 48.7 µM | 24.1 µM | 53.8 µM | 29.6 µM | 59.6 µM | 40.6 µM | > 100 µM | 30.5 µM | > 100 µM | – | – | – | – |
| N#Cc1c(NC(=S)Nc2ccccc2)sc2c1CCCC2 | – | > 100 µM | – | – | – | > 100 µM | – | > 100 µM | – | > 100 µM | – | > 100 µM | – | > 100 µM | – | > 100 µM | > 100 µM | > 100 µM | – | – |
| Cc1cnc2cc(Cl)ccc2c1SCC(=O)O | – | > 100 µM | – | – | – | > 100 µM | – | > 100 µM | – | > 100 µM | – | > 100 µM | – | > 100 µM | – | > 100 µM | > 100 µM | > 100 µM | – | – |
| Cc1cccc(-c2cc(=O)c3cc(C)cnc3[nH]2)c1 | – | 16.4 µM | – | > 29.6 µM | – | – | – | > 100 µM | – | 13.3 µM | – | > 58.3 µM | – | > 24.2 µM | – | 21 µM | > 100 µM | > 100 µM | – | – |
| O=c1cc(-c2ccccc2)[nH]c2c(F)ccc(F)c12 | – | > 100 µM | – | > 100 µM | – | > 100 µM | – | > 100 µM | – | – | – | – | – | – | – | > 100 µM | > 100 µM | > 100 µM | – | – |
| COc1cccc2c1C(=O)c1c(O)c3c(c(O)c1C2=O)C[C@@](O)(C(=O)CO)CC3OC1CC(NCCCCC(OC(C)=O)OC(C)=O)C(O)C(C)O1 (some centres not stated) | – | 0.00774 µM and 0.022 µM | 0.00567 µM | > 1 µM | 0.00175 µM | > 1 µM | – | 0.00812 µM | – | – | – | – | – | 0.0211 µM | 0.00152 µM | 0.00341 µM | 0.00829 µM and 0.0302 µM | 0.00374 µM and 0.00228 µM | 0.000488 µM | 0.000655 µM |
| Clc1ccc(C2=NNC(c3cccc(Cl)c3)C2)cc1 (configuration not stated) | – | > 100 µM | – | 78.1 µM | – | 74.9 µM | – | > 100 µM | – | > 100 µM | – | – | – | 45 µM | – | 28.1 µM | 33.7 µM | > 100 µM | – | – |
| C/C(=N\Nc1nc2ccccc2n1C)c1ccncn1 | – | 30.7 µM | – | > 100 µM | – | > 47.6 µM | – | > 75 µM | – | > 44.7 µM | – | > 100 µM | – | 5.79 µM | – | 11.6 µM | – | – | – | – |
| COc1ccc(Nc2ccnc3cc(Cl)ccc23)cc1CN(CCCl)CCCl | 2.21 µM | 9.75 µM | 1.56 µM | – | 1.59 µM | 7.38 µM | 0.262 µM | 0.933 µM | 0.901 µM | 3.54 µM | 1.78 µM | 13 µM | 2.12 µM | 6.47 µM | – | – | 4.39 µM | – | 0.724 µM | – |
| C/C(=N/OCCC(=O)O)C1CC1 | – | > 100 µM | – | > 100 µM | – | > 100 µM | – | > 100 µM | – | – | – | – | – | – | – | > 100 µM | > 100 µM | > 100 µM | – | – |
| CCC(C)Cn1c(C)nc2c1C(=O)c1ccccc1C2=O (configuration not stated) | – | > 100 µM | – | > 100 µM | – | > 100 µM | – | – | – | – | – | – | – | – | – | 29.6 µM | 66.7 µM | 27.5 µM | – | – |
| CN(C)CCSc1nccc(-c2ccc(-c3ccnc(SCCN(C)C)n3)s2)n1 | – | 16 µM | – | 47.2 µM | – | 18.1 µM | – | 33.1 µM | – | – | – | – | – | 29.6 µM | – | 31 µM | 11.9 µM | 29.7 µM | – | – |
| CC(NC1=NCCO1)c1ccco1 (configuration not stated) | – | 90.2 µM | – | > 100 µM | – | > 100 µM | – | > 100 µM | – | > 100 µM | – | – | – | > 100 µM | – | > 100 µM | > 100 µM | > 100 µM | – | – |
| C/C(=C\c1ccccc1)n1c(=O)cc(C)n1C | – | > 100 µM | – | > 100 µM | – | > 100 µM | – | > 100 µM | – | > 100 µM | – | > 100 µM | – | – | – | > 100 µM | > 100 µM | > 100 µM | – | – |
| CO/C=C(/C(=O)OC)c1ccccc1[C@H]1C[C@@H]1c1ccccc1 | – | 49 µM | – | 51.2 µM | – | – | – | 52.6 µM | – | > 100 µM | – | 52.2 µM | – | 87.2 µM | – | 20.8 µM | – | 37.2 µM | – | – |
| CCOC(=O)c1sc2[n+](c1C)C(=O)/C(=C/c1ccccc1Cl)S2 | – | 18.2 µM | – | > 69.2 µM | – | 46.5 µM | – | 24.5 µM | – | > 35.6 µM | – | – | – | > 56.8 µM | – | 1.89 µM | 19.1 µM | 19.3 µM | – | – |
| [O-][n+]1cc(SCc2ccccc2)ncc1SCc1ccccc1 | – | > 10 µM | – | > 10 µM | – | – | – | > 10 µM | – | > 10 µM | – | > 10 µM | – | > 10 µM | – | > 10 µM | > 10 µM | > 10 µM | – | – |
| COc1ccc(Cn2nc(OCc3ccccc3)c3cc([N+](=O)[O-])ccc32)cc1 | – | > 100 µM | – | > 100 µM | – | > 100 µM | – | – | – | > 100 µM | – | – | – | > 100 µM | – | > 100 µM | > 100 µM | > 100 µM | – | – |
| COc1ccc(-c2nc3ncccn3c2-c2ccc(S(C)(=O)=O)cc2)cc1 | – | > 100 µM | – | > 100 µM | – | > 100 µM | – | 68.7 µM | – | > 100 µM | – | > 100 µM | – | – | – | > 100 µM | > 100 µM | > 100 µM | – | – |
| O=C(CSCC(=O)N/N=C\c1cccc(Br)c1)N/N=C\c1cccc(Br)c1 | – | 32.8 µM | – | 40.6 µM | – | 77.4 µM | – | 37.1 µM | – | 48.3 µM | – | 48.2 µM | – | – | – | 42.3 µM | 23.5 µM | 29.4 µM | – | – |
| N#CC(NNC(=O)c1c(Cl)c(Cl)c(Cl)c(Cl)c1-c1nc2ccc(C(=O)c3ccccc3)cc2[nH]1)c1cccc(Oc2ccccc2)c1 (configuration not stated) | – | > 100 µM | – | > 100 µM | – | > 100 µM | – | > 100 µM | – | > 100 µM | – | 64.8 µM | – | 63.4 µM | – | 38.5 µM | > 100 µM | – | – | – |
| O=C(/C=C/c1ccc(OCCCOc2ccc(/C=C/C(=O)c3ccc(Cl)cc3)cc2)cc1)c1ccc(Cl)cc1 | – | > 100 µM | – | > 100 µM | – | > 100 µM | – | > 100 µM | – | – | – | – | – | – | – | > 100 µM | > 100 µM | > 100 µM | – | – |
